From patent US20250179059A1 (The Regents of the University of California, priority 2021, published 2025)

Experiments:
[1] = target: T1, human BRD4 bromodomain II (Homo sapiens, UniProt O60885); assay: Bromodomain binding assay (AlphaScreen), BRD4 BDII; conditions: AlphaScreen assay, Table C2; read-out: BRD4 BDII IC50
T1 construct: human BRD4 bromodomain II [based on Genbank NM_058243, residues 349-460]; host or cells: E. coli
Outline: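 Tagged BRD4 BDI or BDII constructs, expressed in E. coli, competed against a K5/K8/K12/K16-acetylated biotin-H4 peptide. Proximity signal between bead pairs after room-temperature incubations gave concentration-response curves, from which IC50 was derived.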

[2] = system: human SKM-1 acute myeloid leukemia cells; assay: SKM-1 antiproliferation cell-based assay (ATPlite); conditions: Homo sapiens, SKM-1, 96 h, SKM-1 antiproliferation assay, 4 days, Table C2
Outline: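 Log-phase cells in RPMI 1640/15% FBS were seeded at 34722 cells/mL and exposed for 4 days to nine-concentration DMSO serial dilutions in triplicate. Viability was read as ATP luminescence (ATPlite 1step), and IC50 values came from variable-slope non-linear regression.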

IC50 [1]	GI50 [2]	SMILES
1 to 10 nM	0.3 to 30 nM	CC(=O)Nc1cc(-c2cc(F)cc(-c3ccc(-n4ccn(C)c4=O)c(Cl)c3)c2O)cc(N2CC[C@H](N(C)C)C2)n1 [Example 515, (S)-N-(4-(3′-chloro-5-fluoro-2-hydroxy-4′-(3-methyl-2-oxo-2,3-dihydro-1H-imidazol-1-yl)-[1,1′-biphenyl]-3-yl)-6-(3-(dimethylamino)pyrrolidin-1-yl)pyridin-2-yl)acetamide]
1 to 10 nM	0.3 to 30 nM	CNC1CCN(c2cncc(-c3cc(F)cc(-c4ccc(-n5ccn(C)c5=O)c(Cl)c4)c3O)c2)CC1 [Example 516, 1-(3-chloro-5′-fluoro-2′-hydroxy-3′-(5-(4-(methylamino)piperidin-1-yl)pyridin-3-yl)-[1,1′-biphenyl]-4-yl)-3-methyl-1H-imidazol-2(3H)-one]
0.01 to 1 nM	0.3 to 30 nM	Cc1cc(-c2cc(F)cc(-c3ccc(-n4ccn(C)c4=O)c(Cl)c3)c2O)cc(N2CC[C@H](N)C2)n1 [Example 517, (S)-1-(3′-(2-(3-aminopyrrolidin-1-yl)-6-methylpyridin-4-yl)-3-chloro-5′-fluoro-2′-hydroxy-[1,1′-biphenyl]-4-yl)-3-methyl-1H-imidazol-2(3H)-one]
0.01 to 1 nM	0.3 to 30 nM	Cc1cc(-c2cc(C)nc(N3CC[C@H](N)C3)c2)c(O)c(-c2ccc(-n3ccn(C)c3=O)c(Cl)c2)c1 [Example 518, (S)-1-(3′-(2-(3-aminopyrrolidin-1-yl)-6-methylpyridin-4-yl)-3-chloro-2′-hydroxy-5′-methyl-[1,1′-biphenyl]-4-yl)-3-methyl-1H-imidazol-2(3H)-one]
1 to 10 nM	0.3 to 30 nM	CN[C@H]1CCN(c2cc(-c3cc(F)cc(-c4ccc(-n5ccn(C)c5=O)c(Cl)c4)c3O)cc(NC(C)=O)n2)C1 [Example 519, (S)-N-(4-(3′-chloro-5-fluoro-2-hydroxy-4′-(3-methyl-2-oxo-2,3-dihydro-1H-imidazol-1-yl)-[1,1′-biphenyl]-3-yl)-6-(3-(methylamino)pyrrolidin-1-yl)pyridin-2-yl)acetamide]
10 to 100 nM	300 to 3000 nM	Cn1nnn(-c2ccc(-c3cc(F)cc(-c4ccnc(N5CCNCC5)c4)c3O)cc2Cl)c1=O [Example 520, 1-(3-chloro-5′-fluoro-2′-hydroxy-3′-(2-(piperazin-1-yl)pyridin-4-yl)-[1,1′-biphenyl]-4-yl)-^4-methyl-1H-tetrazol-5(4H)-one]
1 to 10 nM	30 to 300 nM	Cn1ccn(-c2ccc(-c3cc(F)cc(-c4ccnc(N5CCN(CC(=O)O)CC5)c4)c3O)cc2Cl)c1=O [Example 521, 2-(4-(4-(3′-chloro-5-fluoro-2-hydroxy-4′-(3-methyl-2-oxo-2,3-dihydro-1H-imidazol-1-yl)-[1,1′-biphenyl]-3-yl)pyridin-2-yl)piperazin-1-yl)acetic acid]
1 to 10 nM	0.3 to 30 nM	C[C@@H]1CN(c2cc(-c3cc(F)cc(-c4ccc(-n5ccn(C)c5=O)c(Cl)c4)c3O)cc3[nH]cnc23)CCN1 [Example 522, (R)-1-(3-chloro-5′-fluoro-2′-hydroxy-3′-(4-(3-methylpiperazin-1-yl)-1H-benzo[d]imidazol-6-yl)-[1,1′-biphenyl]-4-yl)-3-methyl-1H-imidazol-2(3H)-one]
1 to 10 nM	0.3 to 30 nM	CCC(=O)Nc1cc(-c2cc(F)cc(-c3ccc(-n4ccn(C)c4=O)c(Cl)c3)c2O)cc(N2CC[C@H](N)C2)n1 [Example 523, (S)-N-(6-(3-aminopyrrolidin-1-yl)-4-(3′-chloro-5-fluoro-2-hydroxy-4′-(3-methyl-2-oxo-2,3-dihydro-1H-imidazol-1-yl)-[1,1′-biphenyl]-3-yl)pyridin-2-yl)propionamide]
1 to 10 nM	0.3 to 30 nM	CC(C)C(=O)Nc1cc(-c2cc(F)cc(-c3ccc(-n4ccn(C)c4=O)c(Cl)c3)c2O)cc(N2CC[C@H](N)C2)n1 [Example 524, (S)-N-(6-(3-aminopyrrolidin-1-yl)-4-(3′-chloro-5-fluoro-2-hydroxy-4′-(3-methyl-2-oxo-2,3-dihydro-1H-imidazol-1-yl)-[1,1′-biphenyl]-3-yl)pyridin-2-yl)isobutyramide]
1 to 10 nM	0.3 to 30 nM	Cn1ccn(-c2ccc(-c3cc(F)cc(-c4cc(NC(=O)C5CC5)nc(N5CC[C@H](N)C5)c4)c3O)cc2Cl)c1=O [Example 525, (S)-N-(6-(3-aminopyrrolidin-1-yl)-4-(3′-chloro-5-fluoro-2-hydroxy-4′-(3-methyl-2-oxo-2,3-dihydro-1H-imidazol-1-yl)-[1,1′-biphenyl]-3-yl)pyridin-2-yl)cyclopropanecarboxamide]
1 to 10 nM	0.3 to 30 nM	Cn1ccn(-c2ccc(-c3cc(F)cc(-c4cc(N5CCNCC5)c5cn[nH]c5c4)c3O)cc2Cl)c1=O [Example 526, 1-(3-chloro-5′-fluoro-2′-hydroxy-3′-(4-(piperazin-1-yl)-1H-indazol-6-yl)-[1,1′-biphenyl]-4-yl)-3-methyl-1H-imidazol-2(3H)-one]
0.01 to 1 nM	0.3 to 30 nM	Cn1ccn(-c2ccc(-c3cc(F)cc(-c4ccnc(N5CCN(CCCF)CC5)c4)c3O)cc2Cl)c1=O [Example 527, 1-(3-chloro-5′-fluoro-3′-(2-(4-(3-fluoropropyl)piperazin-1-yl)pyridin-4-yl)-2′-hydroxy-[1,1′-biphenyl]-4-yl)-3-methyl-1H-imidazol-2(3H)-one]
1 to 10 nM	0.3 to 30 nM	Cn1ccn(-c2ccc(-c3cc(F)cc(-c4ccnc(N5CCN(C6COC6)CC5)c4)c3O)cc2Cl)c1=O [Example 528, 1-(3-chloro-5′-fluoro-2′-hydroxy-3′-(2-(4-(oxetan-3-yl)piperazin-1-yl)pyridin-4-yl)-[1,1′-biphenyl]-4-yl)-3-methyl-1H-imidazol-2(3H)-one]
1 to 10 nM	0.3 to 30 nM	C[C@@H]1CN(c2cncc(-c3cc(Cl)cc(-c4ccc(-n5ccn(C)c5=O)c(Cl)c4)c3O)c2)CCN1 [Example 529, (R)-1-(3,5′-dichloro-2′-hydroxy-3′-(5-(3-methylpiperazin-1-yl)pyridin-3-yl)-[1,1′-biphenyl]-4-yl)-3-methyl-1H-imidazol-2(3H)-one]
0.01 to 1 nM	0.3 to 30 nM	CC(C)N1CCN(c2cc(-c3cc(F)cc(-c4ccc(-n5ccn(C)c5=O)c(Cl)c4)c3O)ccn2)CC1 [Example 530, 1-(3-chloro-5′-fluoro-2′-hydroxy-3′-(2-(4-isopropylpiperazin-1-yl)pyridin-4-yl)-[1,1′-biphenyl]-4-yl)-3-methyl-1H-imidazol-2(3H)-one]
1 to 10 nM	30 to 300 nM	Cn1ccn(-c2ccc(-c3cc(F)cc(-c4ccnc(N5CCN(C6CC6)CC5)c4)c3O)cc2Cl)c1=O [Example 531, 1-(3-chloro-3′-(2-(4-cyclopropylpiperazin-1-yl)pyridin-4-yl)-5′-fluoro-2′-hydroxy-[1,1′-biphenyl]-4-yl)-3-methyl-1H-imidazol-2(3H)-one]
> 100 nM	≥ 3000 nM	Cn1ccn(-c2ccc(-c3cc(F)cc(-c4ccnc(N5CCNc6ccccc65)c4)c3O)cc2Cl)c1=O [Example 532, 1-(3-chloro-3′-(2-(3,4-dihydroquinoxalin-1(2H)-yl)pyridin-4-yl)-5′-fluoro-2′-hydroxy-[1,1′-biphenyl]-4-yl)-3-methyl-1H-imidazol-2(3H)-one]
1 to 10 nM	0.3 to 30 nM	Cn1ccn(-c2ccc(-c3cc(F)cc(-c4cc(N5CC[C@H](N)C5)c5nc[nH]c5c4)c3O)cc2Cl)c1=O [Example 533, (S)-1-(3′-(4-(3-aminopyrrolidin-1-yl)-1H-benzo[d]imidazol-6-yl)-3-chloro-5′-fluoro-2′-hydroxy-[1,1′-biphenyl]-4-yl)-3-methyl-1H-imidazol-2(3H)-one]
1 to 10 nM	0.3 to 30 nM	C[C@@H]1CN(c2cc(-c3cc(F)cc(-c4ccc(-n5ccn(C)c5=O)c(F)c4)c3O)ccn2)CCN1 [Example 534, (R)-1-(3,5′-difluoro-2′-hydroxy-3′-(2-(3-methylpiperazin-1-yl)pyridin-4-yl)-[1,1′-biphenyl]-4-yl)-3-methyl-1H-imidazol-2(3H)-one]
1 to 10 nM	0.3 to 30 nM	Cn1ccn(-c2ccc(-c3cc(F)cc(-c4cc(N5CCNCC5)c5nn[nH]c5c4)c3O)cc2Cl)c1=O [Example 535, 1-(3-chloro-5′-fluoro-2′-hydroxy-3′-(4-(piperazin-1-yl)-1H-benzo[d][1,2,3]triazol-6-yl)-[1,1′-biphenyl]-4-yl)-3-methyl-1H-imidazol-2(3H)-one]
1 to 10 nM	0.3 to 30 nM	C[C@@H]1CN(c2cc(-c3cc(F)cc(-c4ccc(-n5ccn(C)c5=O)c(Cl)c4)c3O)cc3[nH]nnc23)CCN1 [Example 536, (R)-1-(3-chloro-5′-fluoro-2′-hydroxy-3′-(4-(3-methylpiperazin-1-yl)-1H-benzo[d][1,2,3]triazol-6-yl)-[1,1′-biphenyl]-4-yl)-3-methyl-1H-imidazol-2(3H)-one]

SMILES	IC50 [1]	GI50 [2]
CN1C2CCC1CN(c1cc(-c3cc(F)cc(-c4ccc(-n5ccn(C)c5=O)c(Cl)c4)c3O)ccn1)C2 [Example 513, 1-(3-chloro-5′-fluoro-2′-hydroxy-3′-(2-(8-methyl-3,8-diazabicyclo[3.2.1]octan-3-yl)pyridin-4-yl)-[1,1′-biphenyl]-4-yl)-3-methyl-1H-imidazol-2(3H)-one]	1 to 10 nM	0.3 to 30 nM
CN1C2CCC1CN(c1cncc(-c3cc(F)cc(-c4ccc(-n5ccn(C)c5=O)c(Cl)c4)c3O)c1)C2 [Example 514, 1-(3-chloro-5′-fluoro-2′-hydroxy-3′-(5-(8-methyl-3,8-diazabicyclo[3.2.1]octan-3-yl)pyridin-3-yl)-[1,1′-biphenyl]-4-yl)-3-methyl-1H-imidazol-2(3H)-one]	1 to 10 nM	0.3 to 30 nM
